Reference: ChEMBL document CHEMBL5291721, “A preclinical secondary pharmacology resource illuminates target-adverse drug reaction associations of marketed drugs” (Nat Commun, 2023)

What was measured:
Estrogen receptor = molecular target: T1, Estrogen receptor (Homo sapiens, UniProt P03372)
T1 sequence (P03372 whole entry): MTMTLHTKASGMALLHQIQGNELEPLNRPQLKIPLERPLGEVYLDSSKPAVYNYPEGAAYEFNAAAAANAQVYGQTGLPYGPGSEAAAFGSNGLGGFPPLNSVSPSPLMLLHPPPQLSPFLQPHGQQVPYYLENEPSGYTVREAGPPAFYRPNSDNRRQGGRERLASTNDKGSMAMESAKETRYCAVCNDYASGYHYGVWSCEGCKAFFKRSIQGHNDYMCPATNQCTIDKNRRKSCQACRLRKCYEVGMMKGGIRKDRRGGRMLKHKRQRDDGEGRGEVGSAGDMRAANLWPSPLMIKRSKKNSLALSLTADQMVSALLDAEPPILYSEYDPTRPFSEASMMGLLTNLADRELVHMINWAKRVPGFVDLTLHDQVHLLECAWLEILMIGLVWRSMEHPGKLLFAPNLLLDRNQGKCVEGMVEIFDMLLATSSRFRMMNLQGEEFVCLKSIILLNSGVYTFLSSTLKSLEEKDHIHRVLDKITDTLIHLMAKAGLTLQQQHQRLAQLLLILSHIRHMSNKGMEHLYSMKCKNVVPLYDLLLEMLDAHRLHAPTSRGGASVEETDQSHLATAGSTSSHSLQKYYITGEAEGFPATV

Histamine H3 receptor = Histamine H3 receptor (Homo sapiens, UniProt Q9Y5N1)
Histamine H3 receptor, sequence (Q9Y5N1 whole entry): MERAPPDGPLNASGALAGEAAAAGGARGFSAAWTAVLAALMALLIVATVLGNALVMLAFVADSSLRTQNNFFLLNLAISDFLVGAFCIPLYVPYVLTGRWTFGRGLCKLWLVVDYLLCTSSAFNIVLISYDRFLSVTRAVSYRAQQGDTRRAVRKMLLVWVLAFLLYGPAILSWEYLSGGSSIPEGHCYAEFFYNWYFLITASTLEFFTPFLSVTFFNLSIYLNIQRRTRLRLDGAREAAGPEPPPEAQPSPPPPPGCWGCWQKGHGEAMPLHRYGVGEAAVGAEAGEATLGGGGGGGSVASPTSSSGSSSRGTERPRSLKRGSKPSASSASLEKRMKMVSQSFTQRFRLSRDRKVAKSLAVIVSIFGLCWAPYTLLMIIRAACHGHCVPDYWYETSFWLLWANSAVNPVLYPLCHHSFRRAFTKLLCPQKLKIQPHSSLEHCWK

Progesterone receptor [1] = molecular target: T2, Progesterone receptor (Homo sapiens, UniProt P06401)
T2 sequence (P06401 whole entry): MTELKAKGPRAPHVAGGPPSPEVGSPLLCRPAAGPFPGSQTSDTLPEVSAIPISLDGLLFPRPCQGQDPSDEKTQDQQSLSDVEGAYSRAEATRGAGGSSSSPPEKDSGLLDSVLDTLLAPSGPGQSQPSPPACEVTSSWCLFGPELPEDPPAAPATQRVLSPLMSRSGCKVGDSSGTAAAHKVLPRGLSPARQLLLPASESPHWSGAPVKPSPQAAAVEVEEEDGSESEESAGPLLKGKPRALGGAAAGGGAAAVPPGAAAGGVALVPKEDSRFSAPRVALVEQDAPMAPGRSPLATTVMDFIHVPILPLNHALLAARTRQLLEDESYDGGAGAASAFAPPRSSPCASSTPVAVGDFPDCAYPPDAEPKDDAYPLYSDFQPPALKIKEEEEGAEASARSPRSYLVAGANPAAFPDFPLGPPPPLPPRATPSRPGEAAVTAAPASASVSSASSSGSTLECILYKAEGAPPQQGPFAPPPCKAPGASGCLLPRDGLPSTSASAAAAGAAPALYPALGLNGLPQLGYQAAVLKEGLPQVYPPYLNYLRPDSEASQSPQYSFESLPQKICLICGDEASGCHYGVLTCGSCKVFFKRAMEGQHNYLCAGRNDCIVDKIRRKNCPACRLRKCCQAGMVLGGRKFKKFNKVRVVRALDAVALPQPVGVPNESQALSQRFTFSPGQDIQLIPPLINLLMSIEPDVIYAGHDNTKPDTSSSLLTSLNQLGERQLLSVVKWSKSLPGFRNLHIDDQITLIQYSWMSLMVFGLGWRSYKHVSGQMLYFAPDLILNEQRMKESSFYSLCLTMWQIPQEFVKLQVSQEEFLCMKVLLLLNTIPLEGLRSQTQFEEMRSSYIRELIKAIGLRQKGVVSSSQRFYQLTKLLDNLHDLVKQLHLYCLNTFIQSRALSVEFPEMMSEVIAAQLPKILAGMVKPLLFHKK

[2] = molecular target: T3, Alpha-2A adrenergic receptor (Homo sapiens, UniProt P08913); type: functional, cell-based
T3 sequence (P08913 whole entry): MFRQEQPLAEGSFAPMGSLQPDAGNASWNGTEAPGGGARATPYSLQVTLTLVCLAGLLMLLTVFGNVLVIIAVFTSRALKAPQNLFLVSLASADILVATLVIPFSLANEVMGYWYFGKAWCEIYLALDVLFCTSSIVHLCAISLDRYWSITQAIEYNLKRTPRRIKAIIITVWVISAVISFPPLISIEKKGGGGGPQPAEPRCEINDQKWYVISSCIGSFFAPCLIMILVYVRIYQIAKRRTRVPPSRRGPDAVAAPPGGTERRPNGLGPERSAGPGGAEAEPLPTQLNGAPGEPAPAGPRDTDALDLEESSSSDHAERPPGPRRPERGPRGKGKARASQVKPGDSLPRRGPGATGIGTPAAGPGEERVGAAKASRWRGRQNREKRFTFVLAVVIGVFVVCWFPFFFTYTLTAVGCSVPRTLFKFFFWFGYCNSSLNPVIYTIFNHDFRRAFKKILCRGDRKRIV

[3] = molecular target: T4, Alpha-2B adrenergic receptor (Homo sapiens, UniProt P18089)
T4 sequence (P18089 whole entry): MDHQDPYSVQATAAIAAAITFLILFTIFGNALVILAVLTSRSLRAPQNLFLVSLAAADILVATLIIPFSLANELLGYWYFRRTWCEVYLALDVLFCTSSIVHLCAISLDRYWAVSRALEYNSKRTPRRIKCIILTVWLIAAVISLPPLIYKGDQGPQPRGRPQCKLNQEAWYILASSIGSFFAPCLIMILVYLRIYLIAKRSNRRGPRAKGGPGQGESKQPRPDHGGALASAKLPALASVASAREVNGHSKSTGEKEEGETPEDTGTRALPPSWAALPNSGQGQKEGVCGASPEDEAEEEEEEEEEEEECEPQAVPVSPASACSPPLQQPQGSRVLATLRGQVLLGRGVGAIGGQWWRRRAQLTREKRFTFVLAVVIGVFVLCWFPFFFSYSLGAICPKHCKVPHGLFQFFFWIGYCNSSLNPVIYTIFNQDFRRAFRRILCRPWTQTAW

[4] = molecular target: Voltage-dependent L-type calcium channel subunit alpha-1C (Rattus norvegicus, UniProt P22002); type: functional
Voltage-dependent L-type calcium channel subunit alpha-1C, sequence (P22002 whole entry): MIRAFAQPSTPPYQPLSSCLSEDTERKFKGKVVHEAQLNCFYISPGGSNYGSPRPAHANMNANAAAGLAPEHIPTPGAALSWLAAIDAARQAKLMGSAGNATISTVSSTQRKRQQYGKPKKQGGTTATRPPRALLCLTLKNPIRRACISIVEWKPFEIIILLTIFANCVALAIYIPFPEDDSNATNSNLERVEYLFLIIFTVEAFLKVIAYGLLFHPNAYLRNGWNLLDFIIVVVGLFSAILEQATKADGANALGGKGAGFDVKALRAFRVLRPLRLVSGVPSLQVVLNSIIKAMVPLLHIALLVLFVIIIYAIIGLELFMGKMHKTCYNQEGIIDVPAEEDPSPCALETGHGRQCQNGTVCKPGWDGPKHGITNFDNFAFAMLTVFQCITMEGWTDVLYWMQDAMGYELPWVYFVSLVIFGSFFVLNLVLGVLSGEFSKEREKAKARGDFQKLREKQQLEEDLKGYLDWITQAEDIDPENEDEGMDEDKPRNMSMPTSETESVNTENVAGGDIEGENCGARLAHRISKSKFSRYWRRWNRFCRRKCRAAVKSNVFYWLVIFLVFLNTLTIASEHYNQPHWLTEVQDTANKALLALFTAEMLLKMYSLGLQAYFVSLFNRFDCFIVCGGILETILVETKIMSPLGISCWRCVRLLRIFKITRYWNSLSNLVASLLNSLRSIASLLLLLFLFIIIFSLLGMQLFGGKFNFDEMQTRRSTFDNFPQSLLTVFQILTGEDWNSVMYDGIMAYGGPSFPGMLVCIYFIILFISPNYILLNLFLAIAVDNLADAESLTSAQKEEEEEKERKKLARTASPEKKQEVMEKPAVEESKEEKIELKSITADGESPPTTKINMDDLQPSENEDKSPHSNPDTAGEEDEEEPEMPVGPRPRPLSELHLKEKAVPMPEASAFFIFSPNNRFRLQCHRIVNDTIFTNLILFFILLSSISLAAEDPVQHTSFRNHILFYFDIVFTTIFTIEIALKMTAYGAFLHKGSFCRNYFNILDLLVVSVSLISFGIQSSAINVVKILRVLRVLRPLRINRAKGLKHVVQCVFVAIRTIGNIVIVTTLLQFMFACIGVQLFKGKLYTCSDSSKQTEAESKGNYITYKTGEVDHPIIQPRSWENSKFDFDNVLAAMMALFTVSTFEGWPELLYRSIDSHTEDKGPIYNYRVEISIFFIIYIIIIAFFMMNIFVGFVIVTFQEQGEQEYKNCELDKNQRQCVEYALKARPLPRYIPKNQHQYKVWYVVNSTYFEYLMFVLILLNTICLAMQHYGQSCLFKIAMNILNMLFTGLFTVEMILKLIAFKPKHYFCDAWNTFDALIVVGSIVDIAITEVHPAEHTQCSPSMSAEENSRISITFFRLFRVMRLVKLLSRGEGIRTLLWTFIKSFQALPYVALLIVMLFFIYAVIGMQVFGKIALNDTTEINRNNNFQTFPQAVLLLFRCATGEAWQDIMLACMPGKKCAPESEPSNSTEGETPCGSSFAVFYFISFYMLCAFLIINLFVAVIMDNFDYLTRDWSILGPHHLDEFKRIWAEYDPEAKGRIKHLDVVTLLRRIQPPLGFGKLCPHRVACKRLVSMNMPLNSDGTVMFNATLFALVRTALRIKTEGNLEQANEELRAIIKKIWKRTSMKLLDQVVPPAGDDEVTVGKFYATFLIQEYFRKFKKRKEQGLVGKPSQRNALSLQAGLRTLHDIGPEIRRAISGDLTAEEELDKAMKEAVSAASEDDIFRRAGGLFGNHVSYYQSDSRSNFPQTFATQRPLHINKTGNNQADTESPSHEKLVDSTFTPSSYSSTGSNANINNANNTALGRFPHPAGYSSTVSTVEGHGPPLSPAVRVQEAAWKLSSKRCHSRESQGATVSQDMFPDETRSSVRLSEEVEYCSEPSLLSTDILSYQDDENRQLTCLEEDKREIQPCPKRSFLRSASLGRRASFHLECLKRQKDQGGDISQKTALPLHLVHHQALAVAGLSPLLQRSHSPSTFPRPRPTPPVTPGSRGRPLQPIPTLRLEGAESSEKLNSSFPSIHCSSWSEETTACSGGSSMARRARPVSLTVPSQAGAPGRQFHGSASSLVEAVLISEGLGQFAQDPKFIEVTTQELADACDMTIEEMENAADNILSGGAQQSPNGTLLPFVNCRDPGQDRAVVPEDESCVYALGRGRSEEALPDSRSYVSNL

D(1A) dopamine receptor = D(1A) dopamine receptor (Homo sapiens, UniProt P21728); type: functional, cell-based
D(1A) dopamine receptor, sequence (P21728 whole entry): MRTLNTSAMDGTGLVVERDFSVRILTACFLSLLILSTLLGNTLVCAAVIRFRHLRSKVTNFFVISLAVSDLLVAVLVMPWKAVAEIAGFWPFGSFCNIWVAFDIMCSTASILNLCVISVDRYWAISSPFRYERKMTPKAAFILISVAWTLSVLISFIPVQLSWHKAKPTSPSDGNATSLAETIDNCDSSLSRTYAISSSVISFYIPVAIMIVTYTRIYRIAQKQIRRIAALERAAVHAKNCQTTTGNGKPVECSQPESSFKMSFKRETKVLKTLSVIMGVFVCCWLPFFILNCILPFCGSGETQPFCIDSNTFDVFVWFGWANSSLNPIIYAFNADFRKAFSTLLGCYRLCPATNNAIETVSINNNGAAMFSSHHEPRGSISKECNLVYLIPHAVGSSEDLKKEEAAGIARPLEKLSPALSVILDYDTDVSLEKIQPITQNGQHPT

Melanocortin receptor 4 = Melanocortin receptor 4 (Homo sapiens, UniProt P32245)
Melanocortin receptor 4, sequence (P32245 whole entry): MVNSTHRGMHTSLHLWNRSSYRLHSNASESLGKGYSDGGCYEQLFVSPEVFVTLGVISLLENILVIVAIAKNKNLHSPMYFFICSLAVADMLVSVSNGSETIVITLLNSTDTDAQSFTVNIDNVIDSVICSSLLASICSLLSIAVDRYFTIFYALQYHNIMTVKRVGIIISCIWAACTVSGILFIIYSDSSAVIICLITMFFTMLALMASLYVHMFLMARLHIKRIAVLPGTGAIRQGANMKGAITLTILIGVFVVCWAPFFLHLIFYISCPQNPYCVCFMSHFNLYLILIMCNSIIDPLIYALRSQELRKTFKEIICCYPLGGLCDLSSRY

[5] = molecular target: Kappa-type opioid receptor (Homo sapiens, UniProt P41145)
Kappa-type opioid receptor, sequence (P41145 whole entry): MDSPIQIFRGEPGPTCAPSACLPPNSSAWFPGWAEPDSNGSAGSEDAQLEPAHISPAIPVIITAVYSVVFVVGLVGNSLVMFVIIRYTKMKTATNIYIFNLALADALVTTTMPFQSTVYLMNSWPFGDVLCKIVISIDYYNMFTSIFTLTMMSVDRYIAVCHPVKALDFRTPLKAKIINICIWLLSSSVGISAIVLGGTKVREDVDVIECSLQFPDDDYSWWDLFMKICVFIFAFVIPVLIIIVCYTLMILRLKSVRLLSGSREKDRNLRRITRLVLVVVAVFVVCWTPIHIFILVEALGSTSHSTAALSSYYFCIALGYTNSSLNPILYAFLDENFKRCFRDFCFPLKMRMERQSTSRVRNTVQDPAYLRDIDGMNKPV

Progesterone receptor [6] = molecular target: T2, Progesterone receptor; type: functional
Mu-type opioid receptor = Mu-type opioid receptor (Homo sapiens, UniProt P35372)
Mu-type opioid receptor, sequence (P35372 whole entry): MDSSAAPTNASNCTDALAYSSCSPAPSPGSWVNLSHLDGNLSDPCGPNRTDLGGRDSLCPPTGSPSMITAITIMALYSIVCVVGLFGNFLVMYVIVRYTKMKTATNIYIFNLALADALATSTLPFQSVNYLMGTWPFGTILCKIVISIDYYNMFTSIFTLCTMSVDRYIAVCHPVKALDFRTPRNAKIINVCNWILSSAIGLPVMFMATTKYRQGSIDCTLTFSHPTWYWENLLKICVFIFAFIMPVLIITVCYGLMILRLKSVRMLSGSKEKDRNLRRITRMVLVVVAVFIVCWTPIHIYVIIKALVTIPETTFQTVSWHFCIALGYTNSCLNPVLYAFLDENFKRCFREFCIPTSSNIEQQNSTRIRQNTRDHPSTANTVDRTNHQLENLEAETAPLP

Cannabinoid receptor 1 [7] = molecular target: T5, Cannabinoid receptor 1 (Homo sapiens, UniProt P21554); type: functional, cell-based
T5 sequence (P21554 whole entry): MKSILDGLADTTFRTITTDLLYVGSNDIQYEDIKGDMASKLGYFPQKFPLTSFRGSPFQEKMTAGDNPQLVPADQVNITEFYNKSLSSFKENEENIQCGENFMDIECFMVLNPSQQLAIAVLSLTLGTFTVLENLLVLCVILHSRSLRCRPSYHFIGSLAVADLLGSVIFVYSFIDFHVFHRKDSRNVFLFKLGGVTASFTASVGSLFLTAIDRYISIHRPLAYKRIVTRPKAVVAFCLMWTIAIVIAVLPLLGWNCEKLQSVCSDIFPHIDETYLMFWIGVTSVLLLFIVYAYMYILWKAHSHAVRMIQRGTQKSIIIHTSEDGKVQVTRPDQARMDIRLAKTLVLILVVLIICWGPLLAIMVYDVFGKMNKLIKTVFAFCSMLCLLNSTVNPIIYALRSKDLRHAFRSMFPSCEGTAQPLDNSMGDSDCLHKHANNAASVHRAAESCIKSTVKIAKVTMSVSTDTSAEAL

Cannabinoid receptor 1 [8] = molecular target: T5, Cannabinoid receptor 1; type: functional, cell-based; remark: listed apart in the source
Further: assay procedure not described here.

Compound	AC50 (Estrogen receptor) [µM]	AC50 (Histamine H3 receptor) [µM]	AC50 (Progesterone receptor [1]) [µM]	further results
CC(C)N(CCNC(=O)CN1CCCC1=O)C(C)C	> 30	> 30	> 30	
Cc1cc(N)c2ccccc2[n+]1CCCCCCCCCC[n+]1c(C)cc(N)c2ccccc21	20.8	0.0813	16	
CCOC(=O)[C@H](CCc1ccccc1)N[C@@H](C)C(=O)N(CC(=O)O)C1Cc2ccccc2C1	> 30	> 30	> 30	
CCN(CCCc1ccccc1)CCCc1ccccc1 [ALVERINE]	> 30	> 30	> 30	
COc1cc(N2CCC(N3CCN(C)CC3)CC2)ccc1Nc1ncc(Cl)c(Nc2ccccc2P(C)(C)=O)n1 [BRIGATINIB]	> 30	2.53	> 30	
CN(C)CCOC(c1ccccc1)c1ccc(Br)cc1 (stereo not drawn) [BROMODIPHENHYDRAMINE]	> 30	> 30	> 30	
CC1OC2(CS1)CN1CCC2CC1 (stereo not drawn) [CEVIMELINE]				AC50 [2]: > 10 µM; AC50 [3]: > 30 µM; AC50 [4]: > 10 µM; AC50 (D(1A) dopamine receptor): > 30 µM; AC50 (Melanocortin receptor 4): > 10 µM; AC50 [5]: > 10 µM; AC50 (Progesterone receptor [6]): > 10 µM; AC50 (Mu-type opioid receptor): > 30 µM
CC(=O)O[C@]1(C(C)=O)CC[C@H]2[C@@H]3C=C(Cl)C4=CC(=O)CC[C@]4(C)[C@H]3CC[C@@]21C [CHLORMADINONE ACETATE]	> 30	> 30	0.003	
NC(=O)OCC(O)COc1ccc(Cl)cc1 (stereo not drawn) [CHLORPHENESIN CARBAMATE]	> 30	> 30	> 30	
O=C(O)c1cn(C2CC2)c2cc(N3CCNCC3)c(F)cc2c1=O [CIPROFLOXACIN]	> 30		> 30	AC50 (Melanocortin receptor 4): > 30 µM
CCN(CC)C(=S)S [DITIOCARB]	> 30	> 30	> 30	
CCOC(=O)c1cncn1[C@H](C)c1ccccc1 [ETOMIDATE]				AC50 [2]: > 10 µM; AC50 [3]: > 10 µM; AC50 [4]: > 10 µM; AC50 (Cannabinoid receptor 1 [7]): > 30 µM; AC50 (D(1A) dopamine receptor): > 10 µM; AC50 (Melanocortin receptor 4): > 10 µM; AC50 [5]: > 10 µM; AC50 (Progesterone receptor [6]): > 10 µM; AC50 (Mu-type opioid receptor): > 30 µM
CC(C(=O)O)c1ccc(-c2ccccc2)c(F)c1 (stereo not drawn) [FLURBIPROFEN]	> 30	> 30		AC50 [2]: > 10 µM; AC50 [4]: > 10 µM; AC50 (D(1A) dopamine receptor): > 10 µM; AC50 (Melanocortin receptor 4): > 10 µM; AC50 [5]: > 10 µM; AC50 (Mu-type opioid receptor): > 30 µM
Cc1cnc(C(=O)NCCc2ccc(S(=O)(=O)NC(=O)NC3CCCCC3)cc2)cn1 [GLIPIZIDE]	> 30	> 30	> 30	AC50 [2]: > 10 µM; AC50 (Melanocortin receptor 4): > 30 µM; AC50 [5]: > 10 µM
CCC1(c2ccccc2)CCC(=O)NC1=O (stereo not drawn) [GLUTETHIMIDE]				AC50 [2]: > 10 µM; AC50 [3]: > 10 µM; AC50 [4]: > 10 µM; AC50 (Cannabinoid receptor 1 [7]): > 30 µM; AC50 (Cannabinoid receptor 1 [8]): > 30 µM; AC50 (D(1A) dopamine receptor): > 10 µM; AC50 (Melanocortin receptor 4): > 10 µM; AC50 [5]: > 10 µM; AC50 (Progesterone receptor [6]): > 10 µM; AC50 (Mu-type opioid receptor): > 30 µM
CC(N)Cc1ccc(O)cc1 (stereo not drawn) [HYDROXYAMPHETAMINE]	> 30	> 30	> 30	
COc1cc2c(cc1OC)CC(=O)N(CCCN(C)C[C@H]1Cc3cc(OC)c(OC)cc31)CC2 [IVABRADINE]	> 30	> 30	> 30	
CC(C)(C)NC[C@H](O)COc1cccc2c1CCCC2=O [LEVOBUNOLOL]	> 30	> 30	> 30	
CN1CCN(C2=Nc3ccccc3Oc3ccc(Cl)cc32)CC1 [LOXAPINE]	> 30	> 30	> 30	AC50 [4]: > 10 µM; AC50 (Cannabinoid receptor 1 [7]): > 30 µM; AC50 (Cannabinoid receptor 1 [8]): > 30 µM; AC50 (D(1A) dopamine receptor): > 10 µM; AC50 (Melanocortin receptor 4): > 30 µM; AC50 [5]: 8.24 µM; AC50 (Mu-type opioid receptor): 13 µM
OC1(c2ccc(Cl)cc2)c2ccccc2C2=NCCN21 (stereo not drawn) [MAZINDOL]				AC50 [2]: > 30 µM; AC50 [3]: > 30 µM; AC50 [4]: > 10 µM; AC50 (Cannabinoid receptor 1 [7]): > 30 µM; AC50 (Cannabinoid receptor 1 [8]): > 30 µM; AC50 (D(1A) dopamine receptor): > 30 µM; AC50 (Melanocortin receptor 4): > 30 µM; AC50 [5]: > 30 µM; AC50 (Progesterone receptor [6]): > 30 µM; AC50 (Mu-type opioid receptor): > 10 µM
CN1C(=O)/C(=N\NC(N)=S)c2ccccc21 [METHISAZONE]	> 30	> 30	> 30	
COC(=O)c1ccc(O)cc1 [METHYLPARABEN]	> 30	> 30	> 30	
CCCc1nc(C(C)(C)O)c(C(=O)O)n1Cc1ccc(-c2ccccc2-c2nnn[nH]2)cc1 [OLMESARTAN]	> 30	> 30	> 30	
NCC(CC(=O)O)c1ccccc1 (stereo not drawn) [PHENIBUT]	> 30	> 30	> 30	
Cc1ncc(COP(=O)(O)O)c(C=O)c1O [PYRIDOXAL PHOSPHATE ANHYDROUS]	10.3	> 30	> 30	
c1ccc2c(c1)CCc1ccccc1N2C1CN2CCC1CC2 (stereo not drawn) [QUINUPRAMINE]	> 30	> 30	> 30	
C[C@H](Cc1cc2c(c(C(N)=O)c1)N(CCCO)CC2)NCCOc1ccccc1OCC(F)(F)F [SILODOSIN]	> 30	> 30	> 30	AC50 [2]: 10 µM
CC1=CCC(C(C)(C)O)CC1O (stereo not drawn) [SOBREROL]	> 30	> 30	> 30	
CCOC(=O)N1CSC[C@H]1C(=O)O [TELMESTEINE]	> 30	> 30	> 30	
